# Tests used:
# [1] = target: T1, Mitogen-activated protein kinase 15 (Homo sapiens) (UniProt Q8TD08); assay: Selectivity interaction (Ambit KINOMEscan and KiNATiv profiling in Jurkat cells) EUB0000090b MAPK15; assay type: cell-based; conditions: at 1 µM
# T1 sequence (whole entry): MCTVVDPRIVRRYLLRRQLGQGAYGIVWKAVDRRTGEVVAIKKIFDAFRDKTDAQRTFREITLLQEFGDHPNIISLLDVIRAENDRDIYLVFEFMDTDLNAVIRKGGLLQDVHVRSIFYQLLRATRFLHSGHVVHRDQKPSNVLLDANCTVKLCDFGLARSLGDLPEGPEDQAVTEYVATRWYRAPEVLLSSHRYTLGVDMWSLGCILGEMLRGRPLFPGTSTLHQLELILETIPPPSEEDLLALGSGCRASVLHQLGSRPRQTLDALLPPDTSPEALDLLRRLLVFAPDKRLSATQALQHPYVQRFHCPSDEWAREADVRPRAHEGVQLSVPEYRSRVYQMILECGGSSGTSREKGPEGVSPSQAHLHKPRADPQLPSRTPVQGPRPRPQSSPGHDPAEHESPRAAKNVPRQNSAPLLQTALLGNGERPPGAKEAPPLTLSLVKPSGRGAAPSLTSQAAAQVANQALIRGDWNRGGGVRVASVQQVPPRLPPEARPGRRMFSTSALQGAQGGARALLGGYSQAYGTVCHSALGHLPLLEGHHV
# [2] = target: Serine/threonine-protein kinase/endoribonuclease IRE1 (Homo sapiens) (UniProt O75460); conditions: at 10 µM
# Serine/threonine-protein kinase/endoribonuclease IRE1 (Homo sapiens), sequence (O75460 19-977 limits assumed): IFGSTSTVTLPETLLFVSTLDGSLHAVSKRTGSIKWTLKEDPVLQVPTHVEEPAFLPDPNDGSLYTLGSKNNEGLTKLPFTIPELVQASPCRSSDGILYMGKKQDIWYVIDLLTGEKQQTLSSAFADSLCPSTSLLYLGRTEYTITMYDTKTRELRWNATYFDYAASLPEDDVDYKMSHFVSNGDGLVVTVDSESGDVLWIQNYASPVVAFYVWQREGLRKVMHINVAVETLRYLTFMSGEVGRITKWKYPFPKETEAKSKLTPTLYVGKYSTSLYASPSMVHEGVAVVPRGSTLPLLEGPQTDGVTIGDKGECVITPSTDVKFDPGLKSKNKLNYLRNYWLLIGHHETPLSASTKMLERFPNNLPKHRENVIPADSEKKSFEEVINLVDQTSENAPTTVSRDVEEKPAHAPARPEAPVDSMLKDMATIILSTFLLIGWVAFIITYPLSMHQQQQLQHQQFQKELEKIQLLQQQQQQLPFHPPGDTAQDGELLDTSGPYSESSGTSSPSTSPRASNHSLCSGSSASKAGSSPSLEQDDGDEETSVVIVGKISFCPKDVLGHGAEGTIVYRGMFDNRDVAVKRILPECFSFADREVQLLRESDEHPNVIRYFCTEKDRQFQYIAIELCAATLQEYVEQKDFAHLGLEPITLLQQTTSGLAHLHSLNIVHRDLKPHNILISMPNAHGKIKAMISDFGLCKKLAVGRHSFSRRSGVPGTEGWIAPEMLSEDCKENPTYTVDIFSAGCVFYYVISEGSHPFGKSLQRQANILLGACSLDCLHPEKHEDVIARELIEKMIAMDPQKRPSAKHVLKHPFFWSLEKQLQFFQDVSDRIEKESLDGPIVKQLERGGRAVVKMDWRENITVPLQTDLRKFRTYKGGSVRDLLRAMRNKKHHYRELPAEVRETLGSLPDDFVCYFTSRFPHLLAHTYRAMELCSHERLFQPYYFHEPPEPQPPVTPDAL
# [3] = target: T2, Testis-specific serine/threonine-protein kinase 3 (Homo sapiens) (UniProt Q96PN8); assay: Selectivity interaction (KinomeScan (DiscoverX)) EUB0001049a TSSK3; conditions: at 1 µM
# T2 sequence (whole entry): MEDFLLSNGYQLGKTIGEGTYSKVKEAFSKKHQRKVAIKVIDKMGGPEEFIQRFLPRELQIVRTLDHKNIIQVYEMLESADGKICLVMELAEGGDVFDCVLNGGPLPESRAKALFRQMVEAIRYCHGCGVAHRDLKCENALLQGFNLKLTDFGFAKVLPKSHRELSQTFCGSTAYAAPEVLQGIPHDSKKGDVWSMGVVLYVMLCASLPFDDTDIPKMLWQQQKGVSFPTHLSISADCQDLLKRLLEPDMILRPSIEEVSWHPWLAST
# [4] = target: T3, Serine/threonine-protein kinase D1 (Homo sapiens) (UniProt Q15139); assay: Selectivity interaction (KinomeScan (DiscoverX)) EUB0000092b PRKD1; conditions: at 10 µM
# T3 sequence (whole entry): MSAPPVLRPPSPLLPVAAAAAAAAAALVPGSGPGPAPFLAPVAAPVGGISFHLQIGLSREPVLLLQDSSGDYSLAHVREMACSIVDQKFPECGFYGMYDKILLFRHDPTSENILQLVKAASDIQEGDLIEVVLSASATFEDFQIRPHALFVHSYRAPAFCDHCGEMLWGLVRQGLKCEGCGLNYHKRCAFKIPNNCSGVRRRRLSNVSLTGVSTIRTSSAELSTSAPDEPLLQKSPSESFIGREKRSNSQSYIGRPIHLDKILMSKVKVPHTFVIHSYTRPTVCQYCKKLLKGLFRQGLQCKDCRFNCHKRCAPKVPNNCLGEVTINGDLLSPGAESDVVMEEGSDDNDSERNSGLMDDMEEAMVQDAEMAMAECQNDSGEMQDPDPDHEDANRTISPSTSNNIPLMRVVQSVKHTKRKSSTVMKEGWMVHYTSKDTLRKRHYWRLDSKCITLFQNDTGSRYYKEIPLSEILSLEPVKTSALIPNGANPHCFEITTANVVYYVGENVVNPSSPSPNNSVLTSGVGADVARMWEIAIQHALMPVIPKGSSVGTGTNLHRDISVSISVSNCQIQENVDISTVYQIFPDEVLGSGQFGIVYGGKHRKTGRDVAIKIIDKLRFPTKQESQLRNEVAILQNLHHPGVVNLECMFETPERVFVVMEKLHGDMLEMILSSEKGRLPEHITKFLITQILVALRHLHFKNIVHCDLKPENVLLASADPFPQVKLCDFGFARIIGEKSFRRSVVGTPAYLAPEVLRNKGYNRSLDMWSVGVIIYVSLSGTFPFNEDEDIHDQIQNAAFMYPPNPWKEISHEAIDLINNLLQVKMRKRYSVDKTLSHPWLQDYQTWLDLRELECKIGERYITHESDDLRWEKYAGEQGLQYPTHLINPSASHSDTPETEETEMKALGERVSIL
# [5] = target: T4, Serine/threonine-protein kinase D3 (Homo sapiens) (UniProt O94806); assay: Selectivity interaction (KinomeScan (DiscoverX)) EUB0000092b PRKD3; conditions: at 10 µM
# T4 sequence (whole entry): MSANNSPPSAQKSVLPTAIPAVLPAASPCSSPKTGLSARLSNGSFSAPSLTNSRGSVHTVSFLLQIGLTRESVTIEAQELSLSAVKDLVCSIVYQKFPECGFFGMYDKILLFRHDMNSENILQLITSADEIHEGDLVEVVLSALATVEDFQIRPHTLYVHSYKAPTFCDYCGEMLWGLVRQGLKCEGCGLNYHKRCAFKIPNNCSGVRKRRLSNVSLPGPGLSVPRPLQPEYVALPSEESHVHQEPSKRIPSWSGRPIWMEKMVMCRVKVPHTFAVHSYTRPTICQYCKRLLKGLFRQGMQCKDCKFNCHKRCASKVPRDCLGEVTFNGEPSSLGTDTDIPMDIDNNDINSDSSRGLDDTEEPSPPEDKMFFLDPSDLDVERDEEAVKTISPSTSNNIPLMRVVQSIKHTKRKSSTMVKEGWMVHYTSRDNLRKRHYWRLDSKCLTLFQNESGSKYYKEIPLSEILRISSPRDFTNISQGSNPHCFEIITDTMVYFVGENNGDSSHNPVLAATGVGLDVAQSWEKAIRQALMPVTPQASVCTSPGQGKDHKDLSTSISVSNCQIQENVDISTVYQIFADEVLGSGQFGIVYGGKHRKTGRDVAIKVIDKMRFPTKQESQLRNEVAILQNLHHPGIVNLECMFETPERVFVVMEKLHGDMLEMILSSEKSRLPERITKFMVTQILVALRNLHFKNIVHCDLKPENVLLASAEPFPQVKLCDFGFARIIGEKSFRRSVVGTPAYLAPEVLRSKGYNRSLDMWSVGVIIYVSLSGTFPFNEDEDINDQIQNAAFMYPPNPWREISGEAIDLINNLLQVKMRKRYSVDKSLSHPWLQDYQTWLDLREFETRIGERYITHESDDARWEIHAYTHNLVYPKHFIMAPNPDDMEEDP
smiles,measurement,setting,value
CN(C)C/C=C/C(=O)Nc1ccc(C(=O)N2CCCC(Nc3ncc(Cl)c(-c4c[nH]c5ccccc45)n3)C2)cc1 (stereo not given),% of control,[1],14%
Cc1cc([C@@H](C)Nc2ccccc2C(=O)O)c2nc(N3CCOCC3)cc(=O)n2c1 [AZD-6482],% of control,[2],91%
COc1cc(Nc2nc(C)cc(-c3cnn4nc(OC)ccc34)n2)cc(C(F)(F)F)c1,% of control,[3],100%
CCC(=O)N1CCN(c2ccc(-n3c(=O)ccc4cnc5ccc(-c6cnc7ccccc7c6)cc5c43)cc2C(F)(F)F)CC1,% of control,[4],99%
same,% of control,[5],100%

# — ChEMBL document CHEMBL5465560, “Selectivity Literature for EUbOPEN Chemogenomic Library” (2024)
